Consider 7 compounds from ChEMBL document CHEMBL5303573, “Mapping human microbiome drug metabolism by gut bacteria and their genes” (Nature, 2019).

Series [1] can be described thus: The drug is tested on Alistipes indistinctus strain: DSM22520 for biotransformation. The drug concentrations were measured before and after a 12-h incubation by liquid-chromatography-coupled mass spectrometry (LC–MS). The note with it: 2 µM.
A short description of series [2]: The drug is tested on Bacteroides dorei strain: DSM17855 for biotransformation. The drug concentrations were measured before and after a 12-h incubation by liquid-chromatography-coupled mass spectrometry (LC–MS). As to conditions: phocaeicola dorei, 2 µM.
Series [3] can be described thus: The drug is tested on Bacteroides pectinophilus strain: ATCC43243 for biotransformation. The drug concentrations were measured before and after a 12-h incubation by liquid-chromatography-coupled mass spectrometry (LC–MS). As to conditions: 2 µM.
The nature of series [4]: The drug is tested on Bacteroides uniformis strain: ATCC8492 for biotransformation. The drug concentrations were measured before and after a 12-h incubation by liquid-chromatography-coupled mass spectrometry (LC–MS). As to conditions: 2 µM.
The nature of series [5]: The drug is tested on Parabacteroides merdae strain: ATCC43184 for biotransformation. The drug concentrations were measured before and after a 12-h incubation by liquid-chromatography-coupled mass spectrometry (LC–MS). As to conditions: 2 µM.
A short description of series [6]: The drug is tested on Anaerococcus hydrogenalis strain: DSM7454 for biotransformation. The drug concentrations were measured before and after a 12-h incubation by liquid-chromatography-coupled mass spectrometry (LC–MS). As to conditions: 2 µM.
Series [7] can be described thus: The drug is tested on Anaerotruncus colihominis strain: DSM17241 for biotransformation. The drug concentrations were measured before and after a 12-h incubation by liquid-chromatography-coupled mass spectrometry (LC–MS). As to conditions: 2 µM.
The nature of series [8]: The drug is tested on Clostridium ramosum strain: DSM1402 for biotransformation. The drug concentrations were measured before and after a 12-h incubation by liquid-chromatography-coupled mass spectrometry (LC–MS). The note with it: thomasclavelia ramosa, 2 µM.
The nature of series [9]: The drug is tested on Enterococcus faecalis strain: V583 for biotransformation. The drug concentrations were measured before and after a 12-h incubation by liquid-chromatography-coupled mass spectrometry (LC–MS). As to conditions: 2 µM.
The nature of series [10]: The drug is tested on Eubacterium rectale strain: ATCC33656 for biotransformation. The drug concentrations were measured before and after a 12-h incubation by liquid-chromatography-coupled mass spectrometry (LC–MS). As to conditions: agathobacter rectalis, 2 µM.
The nature of series [11]: The drug is tested on Ruminococcus gnavus strain: ATCC29149 for biotransformation. The drug concentrations were measured before and after a 12-h incubation by liquid-chromatography-coupled mass spectrometry (LC–MS). The note with it: mediterraneibacter gnavus, 2 µM.
A short description of series [12]: The drug is tested on Ruminococcus torques strain: ATCC27756 for biotransformation. The drug concentrations were measured before and after a 12-h incubation by liquid-chromatography-coupled mass spectrometry (LC–MS). On the set-up: dose 2 uM, timepoint 0 vs 12 hours. It is filed as ADME. The note with it: 2 µM.
Series [13] is described as follows: The drug is tested on Edwardsiella tarda strain: ATCC23685 for biotransformation. The drug concentrations were measured before and after a 12-h incubation by liquid-chromatography-coupled mass spectrometry (LC–MS). As to conditions: 2 µM.
A short description of series [14]: The drug is tested on Providencia stuartii strain: ATCC25827 for biotransformation. The drug concentrations were measured before and after a 12-h incubation by liquid-chromatography-coupled mass spectrometry (LC–MS). The note with it: 2 µM.
For series [15] the following is noted: bifidobacterium adolescentis, 12 h, 2 µM.
Description: The drug is tested on Bifidobacterium adolescentis strain: ATCC 15703 for biotransformation. The drug concentrations were measured before and after a 12-h incubation by liquid-chromatography-coupled mass spectrometry (LC–MS)
For series [16] the following is noted: bacteroides fragilis, 12 h, 2 µM.
Description: The drug is tested on Bacteroides fragilis strain: NCTC 9343 for biotransformation. The drug concentrations were measured before and after a 12-h incubation by liquid-chromatography-coupled mass spectrometry (LC–MS)
For series [17] the following is noted: limosilactobacillus reuteri cf48-3a, 12 h, 2 µM.
Description: The drug is tested on Lactobacillus reuteri CF48-3A strain: BEI HM-102 for biotransformation. The drug concentrations were measured before and after a 12-h incubation by liquid-chromatography-coupled mass spectrometry (LC–MS)
Series [18] can be described thus: The drug is tested on Bacteroides coprophilus strain: DSM18228 for biotransformation. The drug concentrations were measured before and after a 12-h incubation by liquid-chromatography-coupled mass spectrometry (LC–MS). As to conditions: 2 µM.
Series [19] is described as follows: The drug is tested on Bacteroides ovatus strain: ATCC8483 for biotransformation. The drug concentrations were measured before and after a 12-h incubation by liquid-chromatography-coupled mass spectrometry (LC–MS). The note with it: 2 µM.
For series [20] the following is noted: parabacteroides johnsonii, 12 h, 2 µM.
Description: The drug is tested on Parabacteroides johnsonii strain: DSM18315 for biotransformation. The drug concentrations were measured before and after a 12-h incubation by liquid-chromatography-coupled mass spectrometry (LC–MS)

Turning to `CN/C(=N/CCSCc1nc[nH]c1C)NC#N` [CIMETIDINE], the “Bacterial Biotransformation” value was “Compound NOT metabolized” in series [1]; “Compound metabolized” in series [2]; “Compound NOT metabolized” in series [3]; “Compound metabolized” in [4]; “Compound NOT metabolized” in [5]; “Compound NOT metabolized” in [6]. The “Bacterial Biotransformation” value in series [7], in series [8], in series [9], in series [10], in [11] and in series [12] was “Compound NOT metabolized” in each case. Also, the “Bacterial Biotransformation” value in series [13], in [14], in [15], in series [16] and in [17] was “Compound NOT metabolized” each time.
With `CN1CCC[C@@H]1CCO[C@](C)(c1ccccc1)c1ccc(Cl)cc1.O=C(O)/C=C/C(=O)O` [CLEMASTINE FUMARATE], the “Bacterial Biotransformation” value was “Compound NOT metabolized” in [1]; “Compound metabolized” in [18]; “Compound metabolized” in series [2]; “Compound NOT metabolized” in series [19]; “Compound metabolized” in [3]; “Compound metabolized” in series [4]. Besides, the “Bacterial Biotransformation” value in series [5], in [6], in series [8], in series [11], in [12] and in series [13] was “Compound NOT metabolized” in each case. Moreover, the “Bacterial Biotransformation” value was “Compound NOT metabolized” in [14], “Compound metabolized” in series [16], “Compound NOT metabolized” in [20] and “Compound NOT metabolized” in [17].
`CC(C(=O)O)c1ccc2c(c1)Cc1cccnc1O2` (centres undefined) [PRANOPROFEN]: the “Bacterial Biotransformation” value in series [1], in [18], in series [2], in [19], in [3] and in series [4] was “Compound metabolized” throughout. For the same compound, the “Bacterial Biotransformation” value in series [5] is listed as “Compound metabolized”; in series [6], “Compound NOT metabolized”; in series [7], “Compound metabolized”; in [8] it was “Compound metabolized”; in series [9], “Compound NOT metabolized”; in series [11] it was “Compound NOT metabolized”. The “Bacterial Biotransformation” value in [13], in series [14], in series [16] and in series [20] was “Compound metabolized” throughout.
With `CN1C[C@H](C(=O)N[C@]2(C)O[C@@]3(O)[C@@H]4CCCN4C(=O)[C@H](Cc4ccccc4)N3C2=O)C=C2c3cccc4[nH]cc(c34)C[C@H]21.CN1C[C@H](C(=O)N[C@]2(C)O[C@@]3(O)[C@@H]4CCCN4C(=O)[C@H](Cc4ccccc4)N3C2=O)C=C2c3cccc4[nH]cc(c34)C[C@H]21.O=C(O)C(O)C(O)C(=O)O` [ERGOTAMINE TARTRATE], the “Bacterial Biotransformation” value is “Compound NOT metabolized” in series [1]; “Compound metabolized” in [18]; “Compound metabolized” in series [2]; “Compound metabolized” in series [19]; “Compound metabolized” in series [3]; “Compound metabolized” in series [4]. Also, the “Bacterial Biotransformation” value in series [5] is on record as “Compound metabolized”; in [6], “Compound metabolized”; in [7], “Compound metabolized”; in series [8], “Compound metabolized”; in [9], “Compound NOT metabolized”; in [11], “Compound metabolized”. The “Bacterial Biotransformation” value in [12] is “Compound NOT metabolized”; in [13] it was “Compound metabolized”; in series [14], “Compound metabolized”; in series [15] it was “Compound metabolized”; in [16], “Compound metabolized”; in series [20], “Compound metabolized”. In addition, the “Bacterial Biotransformation” value in series [17] is “Compound metabolized”.
`CC(C)NCC(O)COc1ccc(CCOCC2CC2)cc1` (centres undefined) [BETAXOLOL]: the “Bacterial Biotransformation” value in series [1], in series [18], in [19], in series [3], in [4] and in series [5] was “Compound NOT metabolized” in each case. For the same compound, the “Bacterial Biotransformation” value in series [6], in series [7], in series [8], in series [9], in series [10] and in series [11] was “Compound NOT metabolized” in each case. Also, the “Bacterial Biotransformation” value in series [12], in series [13], in series [14], in [15], in series [16] and in [17] was “Compound NOT metabolized” throughout.
For `COc1ccc2c(c1OC)C(=O)O[C@@H]2[C@H]1c2c(cc3c(c2OC)OCO3)CCN1C` [NOSCAPINE], the “Bacterial Biotransformation” value in series [1], in series [18], in series [2], in [19], in [3] and in series [4] was “Compound metabolized” in each case. Besides, the “Bacterial Biotransformation” value in [5] is “Compound metabolized”; in [6] it was “Compound metabolized”; in series [7] it was “Compound metabolized”; in [8] it was “Compound NOT metabolized”; in [9] it was “Compound metabolized”; in [11], “Compound NOT metabolized”. Further, the “Bacterial Biotransformation” value in series [12] is on record as “Compound metabolized”; in [13], “Compound metabolized”; in series [14], “Compound metabolized”; in [15] it was “Compound NOT metabolized”; in series [16] it was “Compound metabolized”; in series [20], “Compound metabolized”. Further, the “Bacterial Biotransformation” value in [17] is given as “Compound metabolized”.
With `CCOC(=O)[C@H](CCc1ccccc1)N[C@@H](C)C(=O)N1[C@H](C(=O)O)C[C@H]2CCCC[C@@H]21` [TRANDOLAPRIL], the “Bacterial Biotransformation” value is on record as “Compound NOT metabolized” in [1]; “Compound metabolized” in [2]; “Compound metabolized” in [4]; “Compound NOT metabolized” in [5]; “Compound metabolized” in series [6]; “Compound NOT metabolized” in [8]. Besides, the “Bacterial Biotransformation” value in [10], in series [11], in series [12], in [13], in series [14] and in series [15] was “Compound NOT metabolized” throughout. The results for the “Bacterial Biotransformation” value in [16] and in [17] were “Compound metabolized” and “Compound NOT metabolized”, respectively.
